Measurements from patent publication US5962418A, “Factor VII-derived peptides” (Nycomed Imaging A/S, priority 1993, dated 1999).
pIC50: −log10 of the molar value. Where a SMILES comes first, the peptide text is derived from it. Bridges are numbered along the chain shown (N, C = ends).

Columns and labels:
[1] = molecular target: T1, tissue factor (TF) expressed on the surface of living cells (Homo sapiens, UniProt P13726); assay: Assay of cell-surface TF initiated coagulation of plasma (microcarrier coagulation assay); format: cell-based; conditions: peptide 0.5 mM
T1 construct: induced by tissue factor (TF) expressed on the surface of living cells; endogenous in cells; host or cells: living cells on Cytodex-3 microcarriers (e.g. human HT-1080 or ECV-304)
Description: FIGS. 9A-9C Principle of the microcarrier assay of cell-surface mediated coagulation of blood plasma. Living cells (e.g., human HT-1080 fibrosarcoma; ATCC CRL 121) adherent on the surface of microcarriers are mixed with a calcium-containing buffer and plasma in the incubation well of a Thrombotrack™ electromagnetic coagulometer (Nycomed). The clotting time is measured by the increase in resistance to movement of a magnetic ball produced by the formation of fibrin fibres. HT-1080 cells adherent on Cytodex-3 microcarriers are shown in FIG. 9C as an example of the types of cells expressing TF which may be used.
Assay of Cell-surface TF Initiated Coagulation of Plasma
A novel assay system has been devised to measure the coagulation of blood plasma (i.e. clotting time) induced by tissue factor (TF) expressed on the surface of living cells. This assay makes use of human or animal cells adherent on the surface of microcarriers (see FIG. 9), which enables reproducible presentation of known amounts of TF activity in the stirred measuring well of an electromagnetic coagulometer. The cells used may be normal or transformed, and representing phenotypes such as monocytes, endothelium, fibroblasts etc (see FIG. 10).
This novel assay has been particularly developed and characterised so as to be highly useful in determining the effect of synthetic peptides and peptidomimetic compounds on the extrinsic pathway of coagulation, using living cells in a plasma milieu. Results for the inhibitory effect of synthetic peptides based upon the amino acid sequence of human FVII are disclosed.
The microcarrier cell preparation is made as follows. Cells obtained from primary isolates or subcultures of transformed lines (see FIG. 10) are suspended in a small volume of serum-containing medium and mixed with microcarriers (Cytodex-3, Pharmacia) in a ratio of about 50-100 cells/microcarrier. The cells are usually adhere nt on the microcarriers within 2 hours, and can then be transferred to normal roller bottles with a larger volume of culture medium. Uniform coverage of microcarriers with about 20-60 cells can be obtained directly with transformed cells, when large cell numbers are available, or after 2 days growth when primary cultures (e.g. umbilical vein endothelial cells) are used. […]
To assay the extrinsic coagulation activity, the microcarrier cell preparations are first washed with a calcium-free buffer to remove bound serum factors. A calcium-containing buffer and plasma are then added and the clotting time is determined automatically in an electromagnetic coagulometer. […]

[2] = molecular target: FVII binding to immobilized rTF (Homo sapiens, UniProt P13726); assay: ELISA assay of inhibition of FVII binding to immobilized rTF; conditions: for inhibition at 500 µM: peptide 0.5 mM
Description: FIG. 13 ELISA assay of the inhibition of FVII binding to immobilized rTF produced by synthetic FVII peptides (all at 0.5 mM). For peptide sequences see the table of peptides below (page 19). C and L denote the cyclic and linear forms respectively of peptides with terminal cysteines.
The inhibition results shown in FIG. 13 indicate that in addition to sequences from the "hinge" region (i.e. residues 41-48 between the GLA domain and the first EGF domain, […]) and from the first EGF domain itself (i.e. residues 50-61; Clarke et al), there exist additional sequences in the second EGF domain (especially 95-104) which are inhibitors when presented as peptides in this binding assay.

[3] = molecular target: T2, FVIIa/TF (Homo sapiens, UniProt P13726); assay: Kinetics of inhibition of FX activation (assay of FVIIa/TF activity); format: biochemical; conditions: varying FVII-5 and Factor X concentrations
T2 construct: purchased Behringwerk (TF, Thromborel); Diagnostica Stago (FVIIa)
Description: Peptides (0-1 mM) were preincubated in 0.1 M Tris.HCl pH 7.2 with tissue factor (Thromborel®, Behringwerk, Marburg, Germany; 0.2% final concentration) at 22° C. for 30 minutes, then Factor X (American Diagnostica Inc., Greenwich, Conn. USA; 70 nM was added followed by FVIIa (Diagnostica Stago, Asnieres, France; 8 pM and CaCl2 (5 mM). Incubations were continued for 30 minutes and quenched with EDTA (50 mM) which removes essential Ca^2+. The FXa produced was quantified by monitoring hydrolysis of the chromegenic FX substrate S-2222 (Chromogenix,Molndal, Sweden).
The kinetics of inhibition of FX activation by FVII-5 was investigated. Varying concentrations of FVII-5 were incubated with different concentrations of Factor X in the presence or absence of TF and FVIIa.

[4] = molecular target: T3, purified human FVIIa bound to recombinant human TF (apoTF/FVIIa) (Homo sapiens, UniProt P13726); assay: Assay of apoTF/FVIIa catalytic (amidolytic) activity; format: biochemical; conditions: for pIC50: read-out: IC50, Amidolytic apo TF Assay
T3 construct: purchased American Diagnostica (TF); Enzyme Research Laboratories (FVIIa) 4500 (TF); HFVlla (FVIIa)
Description: Assay of apoTF/FVIIa Catalytic Activity
This […] assay was used to measure directly the amidolytic (catalytic) activity of purified human FVIla when bound to recombinant human TF in the absence of phospholipid.
Reactions were performed in microtitre plate wells, using a final incubation volume of 200 uL. Test compounds, dissolved in water, (final concentration, 0-1 mM) were preincubated with recombinant human tissue factor (American Diagnostica, cat# 4500; 5 nM) and CaCl2 (5 mM) in Tris buffer (100 mM), pH 7.2, containing NaCl (150 mM) and BSA (1 mg/mL) at ambient temperature for 30 minutes. Factor Vlla (Enzyme Research Laboratories, cat# HFVlla; 5 nM) was added and the incubations continued for 60 minutes. Chromogenic substrate, S2288 (Chromogenix cat# 820852; 0.5 mM) was then added and the enzymatic activity of the tissue factor apoprotein/factor VII complex (apoTF/FVlla) was monitored at 405 nm.

[5] = tested on: coagulation factors of the intrinsic and common pathways of coagulation; assay: Coagulation assay initiated by contact activation (Cephotest); conditions: all coagulation factors other than TF/FVII
From the text: The effect of the peptides observed in the coagulation assay could conceivably have been due to effects on another one or more of the several components contributing to the coagulation cascade. This possibility was therefore tested by adding the peptides to coagulation assays which were initiated by contact activation (Cephotest™, Nycomed), and therefore involved coagulation factors of the intrinsic and common pathways of coagulation, i.e. all coagulation factors other than TF/FVII. […] Thus evidence was obtained that the effects observed in the TF/FVII initiated coagulation assay above were in fact due to a direct effect on the TF/FVII complex.

[6] = molecular target: T4, native TF/FVIIa complex on the surface of HT-1080 cells (Homo sapiens, UniProt P13726); assay: Assay of HT1080 cell surface TF/FVIIa mediated activation of FX (amidolytic microcarrier assay); format: cell-based
T4 construct: native TF/FVIIa complex on the surface of living cells expressing TF in their cell membrane; endogenous in cells; host or cells: HT-1080 human fibrosarcoma cells on Cytodex-3 microcarriers

[7] = molecular target: Factor VII and tissue factor (Homo sapiens, UniProt P13726); conditions: Corvas Inc., Table 1 of WO90/03390; cited from earlier work
[8] = molecular target: binding of Factor VII to tissue factor (Homo sapiens, UniProt P13726); assay: Inhibition of FVII/TF binding or FVII activity, assay not specified (summary statements)
Chain of binding of Factor VII to tissue factor (P13726 33-295): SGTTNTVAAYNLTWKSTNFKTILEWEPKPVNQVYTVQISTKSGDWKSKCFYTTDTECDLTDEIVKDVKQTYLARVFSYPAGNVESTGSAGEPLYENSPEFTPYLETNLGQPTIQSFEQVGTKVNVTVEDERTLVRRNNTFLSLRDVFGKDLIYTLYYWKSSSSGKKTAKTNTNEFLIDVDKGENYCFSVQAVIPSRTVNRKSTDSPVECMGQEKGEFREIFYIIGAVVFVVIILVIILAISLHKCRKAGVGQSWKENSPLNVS

T1 sequence (P13726 33-295): as above
T3 sequence (P13726 33-295): as above
Chain of FVII binding to immobilized rTF (P13726 33-295): as above
Chain of Factor VII and tissue factor (P13726 33-295, species assumed): as the sequence (P13726 33-295) above
T4 sequence (P13726 33-295, one chain of several): as the sequence (P13726 33-295) above
T2 sequence (P13726 33-295): as above

| inhibition at 500 µM [1] [%] | Inhibitory activity, in words [8] | Compound | Effect on contact-activated coagulation (specificity) [5] | Inhibition of activation of Factor X by Factor VII and tissue factor as reported in WO90/03390 [7] | also measured |
| --- | --- | --- | --- | --- | --- |
| 30 | – | Ac-SDHTGTKRS-NH2 [103-111] | inactive | – | pIC50 [4]: 2.66; pIC50 ([6]; HT-1080 cells on microcarriers): 3.06; inhibition at 500 µM [2]: 59% |
| – | relatively active | CHEGYSLLADGVSC [114-127, FVII residues 114-127] | – | zero inhibitory acticity | – |
| – | most active inhibitor so far tested | NGGCEQYCSD [95-104, FVII residues 95 to 104] | inactive | – | Inhibition of FVII binding to rTF, in words ([2]; peptides at 0.5 mM (FIG. 13)): inhibitors |

Second part, the compound before the results:

| Compound | inhibition at 500 µM [1] [%] | Inhibitory activity, in words [8] | Effect on contact-activated coagulation (specificity) [5] | Inhibition of activation of Factor X by Factor VII and tissue factor as reported in WO90/03390 [7] | also measured |
| --- | --- | --- | --- | --- | --- |
| CC(C)C[C@@H]1NC(=O)[C@@H](N)CSSC[C@@H](C(=O)O)NC(=O)[C@H](CC(N)=O)NC(=O)[C@H](CCCNC(=N)N)NC(=O)CNC(=O)[C@H](CCC(=O)O)NC(=O)[C@H](Cc2ccccc2)NC(=O)[C@H](C)NC(=O)[C@@H]2CCCN2C1=O [72-81(C)] | 22 | – | – | – | inhibition at 500 µM [2]: 89% |
| CC(C)[C@@H]1NC(=O)[C@@H](N)CSSC[C@@H](C(=O)O)NC(=O)[C@H](Cc2ccc(O)cc2)NC(=O)[C@H](CCC(N)=O)NC(=O)[C@H](CCC(=O)O)NC(=O)[C@H](CS)NC(=O)CNC(=O)CNC(=O)[C@H](CC(N)=O)NC(=O)[C@H](CCC(=O)O)NC(=O)[C@H](CC(N)=O)NC1=O [91-102(C)] (H-CVNENGGCEQYC-OH; disulfide 1-12 (inferred)) | – | – | – | – | Mode of inhibition of Factor X activation [3]: noncompetitive inhibition |
| CC(C)[C@H](NC(=O)[C@@H](N)CS)C(=O)N[C@@H](CC(N)=O)C(=O)N[C@@H](CCC(=O)O)C(=O)N[C@@H](CC(N)=O)C(=O)NCC(=O)NCC(=O)N[C@@H](CS)C(=O)N[C@@H](CCC(=O)O)C(=O)N[C@@H](CCC(N)=O)C(=O)N[C@@H](Cc1ccc(O)cc1)C(=O)N[C@@H](CS)C(=O)O [91-102(L)] (H-CVNENGGCEQYC-OH; N-terminus and C-terminus assumed) | 14 | – | – | – | pIC50 [4]: 2.94; pIC50 [2]: 4.22 |
| CC(C)C[C@@H]1NC(=O)[C@H](CC(C)C)NC(=O)[C@H](CO)NC(=O)[C@H](Cc2ccc(O)cc2)NC(=O)CNC(=O)[C@H](CCC(=O)O)NC(=O)[C@H](Cc2c[nH]cn2)NC(=O)[C@@H](N)CSSC[C@@H](C(=O)O)NC(=O)[C@H](CO)NC(=O)[C@H](C(C)C)NC(=O)CNC(=O)[C@H](CC(=O)O)NC(=O)[C@H](C)NC1=O [114-127(C)] (H-CHEGYSLLADGVSC-OH; disulfide 1-14) | 44 | – | – | – | inhibition at 500 µM ([4]; peptide 0.5 mM, did not reach near-quantitative inhibition at 1 mM, read-out: % inhibition at 0.5 mM, Amidolytic apo TF Assay): 21%; inhibition at 500 µM [2]: 77% |
| CLPAFEGRNC [72-81] | – | – | – | zero inhibitory acticity | Synergistic enhancement of the inhibitory action of peptides of the sequence 91 to 104 ([8]; in combination): acted synergistically |
| CVNENGGCEQYC [91-102, FVII residues 91-102] | – | particularly active | inactive | zero inhibitory acticity | – |
| Hirudin [reference compound] | – | – | strongly inhibitory | – | – |
| SDHTGTKRSC [reference compound] | – | only moderate activity | – | active | Inhibitor of the binding of Factor VII to tissue factor, in words [8]: rather poor inhibitor |
| TAP: tick anticoagulant polypeptide; control inhibitor of FX (YNRLCIKPRDWIDECDSNEGGERAYFRNGKGGCDSFWICPEDHTGADYYSSYRDCFNACI; UniProt P17726 1-60, looked up) [reference compound] | – | – | strongly inhibitory | – | Inhibition of FXa amidolytic activity generated by HT-1080 cell-surface TF/FVIIa ([6]; HT-1080 cells): inhibition of activity |
